Patent US20230255943A1, “MMP-9 AND MMP-12 INHIBITION FOR TREATING SPINAL CORD INJURY OR RELATED INJURY TO NEUROLOGICAL TISSUE” (The University of Birmingham, priority 2020, published 2023)

Assays:
MMP-12 = molecular target: T1, MMP-12 (Rattus norvegicus, UniProt Q63341); assay: MMP-12 activity after DC injury in rats; format: in vivo; details: oral
T1 construct: from tissue; host or cells: Sprague-Dawley rat spinal cord lesion site
Description: The efficacy of oral AZD3342 in the DC injury model in adult Sprague-Dawley rat was also assessed. Animals were divided into 6 groups: (1), Sham (control); (2), DC crush injury+Vehicle; (3), DC crush injury+15 mg/kg AZD3342; (4), DC crush injury+75 mg/kg […]; (5), DC crush injury+375 mg/kg AZD3342; and (6), DC crush injury+Melatonin. Animals were dosed twice daily with oral AZD3342 or vehicle with the experimenters masked to the treatment conditions. These experiments were performed with n=6 rats/group and repeated on 2-3 independent occasions (total n=12-18 rats/group/test).
The lesion site+3 mm either side for mouse (DC and CC SCI) and lesion site+5 mm either side for rat was dissected (n=6 mice/rats/group, 2 independent repeats, total n=12 mice/rats/group) and rapidly frozen in liquid N2 and stored at −80° C. until required. The enzymatic activity of MMP-9 and MMP-12 was determined in 96-well plates using the SensoLyte 520 MMP-9 and MMP-12 fluorimetric assay kit, according to the manufacturer's instructions (AnaSpec, Fremont, Calif., USA). Fluorescence intensity was measured using a Synergy H1 microplate reader (BioTek UK, Swindon, UK) at Ex/Em=490/520 nm.

[1] = test system: mice with DC crush injury; assay: BSCB integrity by albumin immunoreactivity; format: in vivo, mouse; details: oral
Source text: (§1) After killing animals by exposure to rising concentrations of CO2, mice were intracardially perfused with 4% formaldehyde (TAAB Laboratories, Berkshire, UK) in 0.1M phosphate buffered saline (PBS). The lesion site+5 mm either side were dissected out, post-fixed in 4% formaldehyde and subjected to a graded series of sucrose solutions for cryoprotection. Spinal cords were blocked in OCT mounting compound (TAAB laboratories), sectioned longitudinally at 15 μm-thick using a cryostat (Brights Instruments, Huntingdon, UK) before being collected on charged glass slides (ThermoFisher Scientific, Loughborough, UK) and kept at −20° C. until required. Slides were numbered consecutively and sections from the middle of the lesion site were chosen for all immunohistochemical analyses, as described by previously (Surey S, Berry M, Logan A, Bicknell R, Ahmed Z. Differential cavitation, angiogenesis and wound-healing responses in injured mouse and rat spinal cords. Neuroscience 2014; 275: 62-80).
The integrity of the BSCB was assessed using albumin immunoreactivity in the spinal cord at 3 days after injury, as a surrogate marker of BSCB disruption. Sections were thawed at room temperature and washed in PBS before blocking endogenous […] in H2O2. […]

[2] = test system: mice with DC crush injury; assay: Immunohistochemistry of CD11b, CD68 and GFAP at lesion site; format: in vivo, mouse; details: immediate or delayed by 24 h
Source text: as §1
Fluorescent immunohistochemistry was performed as described previously (S. Surey, M. Berry, A. Logan, R. Bicknell, Z. Ahmed, Differential cavitation, angiogenesis and wound-healing responses in injured mouse and rat spinal cords. Neuroscience 275, 62-80 (2014)). […] Laminin was detected at 4 weeks after DC injury and treatment using a rabbit polyclonal anti-laminin primary antibody (ab11575; 1:400 dilution, Abcam). Macrophages were detected with a rabbit polyclonal anti-CD68 antibody (ab1525212; 1:500 dilution, Abcam); microglia were detected using a rabbit polyclonal antibody to CD11b (ab128797, 1:500 dilution, Abcam); GFAP was detected using a polyclonal anti-GFAP antibody (SAB5700611, 1:400 dilution, Sigma) were all detected at 10 days after DC injury and treatment. Semaphorin-3A (Sema-3A) and chondroitin sulphate proteoglycan (CSPG) was detected using monoclonal anti-CS-56 antibody (C8035; 1:200 dilution, Sigma) at 7 days after injury. […] CTB labelled axons in the mouse were detected using a goat polyclonal anti-CTB antibody (#703; 1:1000 dilution, List Biological Labs) at 6 weeks after DC injury. […]

T1 sequence (Q63341 102-465): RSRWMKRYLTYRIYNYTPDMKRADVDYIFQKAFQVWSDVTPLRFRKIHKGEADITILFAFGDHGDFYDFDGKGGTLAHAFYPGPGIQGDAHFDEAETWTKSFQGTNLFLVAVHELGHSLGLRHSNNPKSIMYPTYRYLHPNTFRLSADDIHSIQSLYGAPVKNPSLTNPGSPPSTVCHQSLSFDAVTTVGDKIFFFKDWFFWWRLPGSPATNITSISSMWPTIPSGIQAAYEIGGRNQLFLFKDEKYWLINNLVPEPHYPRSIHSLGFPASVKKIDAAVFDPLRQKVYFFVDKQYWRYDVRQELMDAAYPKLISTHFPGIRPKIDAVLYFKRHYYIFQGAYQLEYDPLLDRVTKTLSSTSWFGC

Row | Compound | MMP-12 activity (MMP-12) | suppression of area of BSCB breakdown (albumin immunoreactivity) ([1]; 24 h delayed treatment) | suppression of area of BSCB breakdown (albumin immunoreactivity) ([1]; immediately after injury, 3 days, vs DC+vehicle) | CD11b immunoreactivity at the lesion site [2] | CD68 immunoreactivity at the lesion site [2] | GFAP+ immunoreactivity at the lesion site [2]
1 | C[C@]1(CS(=O)(=O)N2CCC(Oc3ccc(Cl)cn3)CC2)NC(=O)NC1=O [AZD3342, (5S)-5-[4-(5-chloro-pyridin-2-yloxy)-piperidine-1-sulfonylmethyl]-5-methylimidazolidine-2,4-dione] | significantly suppresses |  |  |  |  | 
2 | C[C@]1(CS(=O)(=O)N2CC=C(C#Cc3cnc(C4CC4)nc3)CC2)NC(=O)NC1=O [AZD1236] |  | > 73% | > 75% | significantly reduced | significantly reduced | significantly reduced
